# Patent US6673902B2, “Cyclin D binding factor, and uses thereof” (St. Jude Children's Research Hospital, priority 1996, dated 2004)
# Test system: D-type cyclins
# Test: Co-expression with D-type cyclins in Sf9 cells and co-precipitation
# Assay type: binding, mouse
# Method: BamHI linkers are added to an XbaI-EcoRV cDNA fragment containing the entire DMP1 coding sequence, and the fragment is inserted into the BamHI site of the pAcYM1 baculovirus vector (37). Production of virus and infection of Spodoptera frugiperda (Sf9) cells are performed as previously described (23). For preparation of radiolabeled cell lysates, cells infected with the indicated recombinant viruses encoding DMP1, CDKs, and/or cyclins are metabolically labeled 40 hours post-infection for 8 additional hours with 50 uCi/ml of [^35S]methionine (1000 Ci/mmol; ICN, Irvine Calif.) in methionine-free medium or for 4 additional hours with 250 uCi/ml of carrier-free ^32P-orthophosphate (9000 Ci/mmol, Amersham) in phosphate-free medium. Cells suspended in 0.25 ml Kinase buffer containing protease and phosphatase inhibitors [2.5 mM EGTA, 0.1 mM phenylmethyl sulfonylfluoride (PMSF), 2% aprotinin, 1 mM β-glycerophosphate, 0.1 mM Na3VO4, and 0.1 mM NaF] are lysed by repeated freezing and thawing and clarified by centrifuigation. […]
# We next co-expressed full length DMP1 together with D-type cyclins under baculovirus vector control in insect Sf9 cells. […] Electrophoretic separation of unfractionated metabolically labeled lysates from infected cells enabled direct autoradiographic visualization and relative quantitation of the recombinant mouse proteins (FIG. 3A). […]
substance,measurement,setting,value
"DMP1: murine cyclin D-associated myb-like transcription factor, 761 amino acids, SEQ ID NO:1",DMP1 molecules forming stable complexes with D-type cyclins,coexpressed in Sf9 cells,≤ 15%
same,cyclin stably bound,"coinfected Sf9 cells, approximately equivalent levels of protein and cyclin D2 or cyclin D3",5-15%
